Source: patent US11639350B2, “Heteroaryldihydropyrimidine derivatives and methods of treating hepatitis B infections” (Janssen Pharmaceutica NV, priority 2018, dated 2023)

Legend:
[1] = Cytotoxicity determination in HepG2.2.15 cells (CCK-8); type: cell-based; conditions: human, 6 days of compound treatment, CCK-8, highest concentration 100 μM
Procedure, shortened: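 CC50 is from CCK-8 absorbance (450 nm, 630 nm reference) after 2.5 h with reagent. Before that, compounds were applied for six days, top concentration 100 μM, eight threefold dilutions, one mid-course medium change, to stably HBV-integrated HepG2.2.15 cells plated at 5,000/well in 2% FBS.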

HBV = HBV inhibitory activity: HBV DNA in the culture medium of HepG2.2.15 cells by q-PCR; type: cell-based; conditions: Hepatitis B virus, HepG2.2.15, 144 h, HepG2.2.15 cells, 6 days of compound treatment, HBV DNA in culture medium by q-PCR, highest concentration 10 μM; read-out: EC50
Procedure, shortened: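 Supernatant HBV DNA quantified by q-PCR after a 6-day compound exposure, with one mid-course medium change, of HepG2.2.15 cells (stably integrated HBV; 40,000 per well, 2% FBS). Eight-point 3-fold series topped at 10 μM for antiviral EC50; separate plates of 5,000 cells per well with 100 μM top give CC50.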

SMILES	CC50 at 6 days [1] [nM]	EC50 (HBV) [nM]
COC(=O)C1=C([C@H]2CC[C@H](NS(=O)(=O)C3CN(C)C3)CC2)NC(c2nccs2)=NC1c1ccc(F)c(F)c1Cl (single isomer, unassigned) [Compound 251B, (trans)-Methyl 4-(2-chloro-3,4-difluorophenyl)-6-(4-(1-methylazetidine-3-sulfonamido)cyclohexyl)-2-(thiazol-2-yl)-1,4-dihydropyrimidine-5-carboxylate]	8700	103
COC(=O)C1=C(C2CCN(C)C(=O)C2)NC(c2nccs2)=NC1c1cccc(F)c1Cl (single isomer, unassigned) [Compound 4B, Methyl 4-(2-chloro-3-fluorophenyl)-6-(1-methyl-2-oxopiperidin-4-yl)-2-(thiazol-2-yl)-1,4-dihydropyrimidine-5-carboxylate]	> 10000	351
CCOC(=O)C1=C(C2CCN(S(=O)(=O)[C@H]3C[C@H](C(=O)O)C3)CC2)NC(c2nccs2)=NC1c1cccc(F)c1Cl (stereo partly drawn) [Compound 319B, (trans)-3-((4-(6-(2-chloro-3-fluorophenyl)-5-(ethoxycarbonyl)-2-(thiazol-2-yl)-3,6-dihydropyrimidin-4-yl)piperidin-1-yl)sulfonyl)-cyclobutanecarboxylic Acid]	31300	102
CCOC(=O)C1=C(C2CCN(S(=O)(=O)[C@H]3C[C@@H](C(=O)O)C3)CC2)NC(c2nccs2)=NC1c1cccc(F)c1Br (relative stereo) [Compound 339D, (cis)-3-((4-(6-(2-Bromo-3-fluorophenyl)-5-(ethoxycarbonyl)-2-(thiazol-2-yl)-3,6-dihydropyrimidin-4-yl)piperidin-1-yl)sulfonyl)cyclobutanecarboxylic Acid]	32700	99
CCOC(=O)C1=C([C@H]2CCC[C@H](C(=O)O)CC2)NC(c2nccs2)=NC1c1ccc(F)c(F)c1Cl (single isomer, unassigned) [Compound 302A, (trans)-4-(−6-(2-Chloro-3,4-difluorophenyl)-5-(ethoxycarbonyl)-2-(thiazol-2-yl)-3,6-dihydropyrimidin-4-yl)cycloheptanecarboxylic Acid]	15200	24
CNS(=O)(=O)[C@H]1CC[C@H](C2=C(C(=O)OC)C(c3cccc(F)c3Cl)N=C(c3nccs3)N2)CC1 (single isomer, unassigned) [Compound 259E, (trans)-methyl 4-(2-chloro-3-fluorophenyl)-6-(4-(N-methylsulfamoyl)cyclohexyl)-2-(thiazol-2-yl)-1,4-dihydropyrimidine-5-carboxylate]	22700	28
CCS(=O)(=O)N1CCC(C2=C(C(=O)OC)C(c3ccc(F)cc3Cl)N=C(c3nccs3)N2)CC1 (stereo not shown) [Compound 101, Methyl 4-(2-chloro-4-fluorophenyl)-6-(1-(ethylsulfonyl)piperidin-4-yl)-2-(thiazol-2-yl)-1,4-dihydropyrimidine-5-carboxylate]	38000	210
CNS(=O)(=O)[C@H]1CC[C@H](C2=C(C(=O)OC)C(c3ccc(F)c(F)c3Cl)N=C(c3ncc(F)cc3F)N2)CC1 (single isomer, unassigned) [Compound 168A, methyl 4-(2-chloro-3,4-difluorophenyl)-2-(3,5-difluoropyridin-2-yl)-6-((trans)-4-(N-methylsulfamoyl)cyclohexyl)-1,4-dihydropyrimidine-5-carboxylate]	12500	6
COCCNS(=O)(=O)N1CCC(C2=C(C(=O)OC)C(c3ccc(F)cc3Cl)N=C(c3nccs3)N2)CC1 (single isomer, unassigned) [Compound 268B, Methyl 4-(2-chloro-4-fluorophenyl)-6-(1-(N-(2-methoxyethyl)-sulfamoyl)piperidin-4-yl)-2-(thiazol-2-yl)-1,4-dihydropyrimidine-5-carboxylate]	30700	59
COC(=O)C1=C(C2CCN(S(=O)(=O)C[C@H]3CC[C@H](C(=O)O)CC3)CC2)NC(c2nccs2)=NC1c1ccc(F)cc1Cl (stereo partly drawn) [Compound 422, trans-4-(((4-(6-(2-chloro-4-fluorophenyl)-5-(methoxycarbonyl)-2-(thiazol-2-yl)-3,6-dihydropyrimidin-4-yl)piperidinyl)sulfonyl)methyl)cyclohexane-1-carboxylic Acid]	26900	27
COC(=O)C1=C([C@H]2CC[C@H](C(=O)O)CC2)NC(c2nccs2)=NC1c1ccc(F)c(F)c1Cl (relative stereo) [Compound 289A, (trans)-4-(6-(2-chloro-3,4-difluorophenyl)-5-(methoxycarbonyl)-2-(thiazol-2-yl)-3,6-dihydropyrimidin-4-yl)cyclohexanecarboxylic Acid]	24200	15
COC(=O)C1=C(C2CCCC(NS(C)(=O)=O)CC2)NC(c2nccs2)=NC1c1ccc(F)cc1Cl (stereo not shown) [Compound 190, Methyl 4-(2-chloro-4-fluorophenyl)-6-(4-(methylsulfonamido)-cycloheptyl)-2-(thiazol-2-yl)-1,4-dihydropyrimidine-5-carboxylate]	15000	78
COC(=O)C1=C(C2CCN(S(=O)(=O)[C@H]3CC[C@H](C(=O)O)C3)CC2)NC(c2nccs2)=NC1c1ccc(F)cc1Cl (relative stereo) [Compound 311A, (trans)-3-((4-(6-(2-Chloro-4-fluorophenyl)-5-(methoxycarbonyl)-2-(thiazol-2-yl)-3,6-dihydropyrimidin-4-yl)piperidin-1-yl)sulfonyl)-cyclopentanecarboxylic Acid]	> 100000	89
COC(=O)C1=C(C2CN(S(=O)(=O)c3ccccc3)C2)NC(c2nccs2)=NC1c1ccc(F)cc1Cl (single isomer, unassigned) [Compound 130A, 6-(1-Benzenesulfonyl-azetidin-3-yl)-4-(2-chloro-4-fluoro-phenyl)-2-thiazol-2-yl-1,4-dihydro-pyrimidine-5-carboxylic acid methyl ester]	> 10000	317
COC(=O)C1=C(C2CCN(S(=O)(=O)[C@H]3C[C@@H](C(=O)O)C3)C2)NC(c2nccs2)=NC1c1ccc(F)cc1Cl (relative stereo) [Compound 367B, (cis)-3-((3-(6-(2-chloro-4-fluorophenyl)-5-(methoxycarbonyl)-2-(thiazol-2-yl)-3,6-dihydropyrimidin-4-yl)pyrrolidin-1-yl)sulfonyl)cyclobutanecarboxylic Acid]	> 100000	800
CCOC(=O)C1=C([C@H]2CC[C@H](C(=O)O)CC2)NC(c2nccs2)=NC1c1ccc(F)c(F)c1Cl (single isomer, unassigned) [Compound 345A, (trans)-(R*)-4-(6-(2-Chloro-3,4-difluorophenyl)-5-(ethoxycarbonyl)-2-(thiazol-2-yl)-3,6-dihydropyrimidin-4-yl)cyclohexanecarboxylic Acid]	34100	44
CNS(=O)(=O)[C@H]1CC[C@@H](C2=C(C(=O)OC)C(c3cccc(F)c3Cl)N=C(c3nccs3)N2)CC1 (single isomer, unassigned) [Compound 259C, (cis)-methyl 4-(2-chloro-3-fluorophenyl)-6-(4-(N-methylsulfamoyl)cyclohexyl)-2-(thiazol-2-yl)-1,4-dihydropyrimidine-5-carboxylate]	12700	36
